Measurements reported in patent US8188296B2, “Gentisic acid for stabilising 123-I radiopharmaceuticals” (GE Healthcare Limited, priority 2005, dated 2012).

Legend:
Assay type in all cases: physicochemical
[1] = Radiochemical purity (TLC) of 123I-IBZM solutions stored at ambient temperature, GA vs AA stabiliser (Example 1); conditions: at the moment of use; stabiliser named as label
Protocol: ^123I-IBZM was prepared by the method of Bobeldijk et al [J. Lab. Comp. Radiopharm., 28, 1247-1256 (1990)]. A small series of ^123I-IBZM solutions was prepared: to each vial 200 μl of ^123I-IBZM in EtOH (925 MBq/cm^3) was added and subsequently 2.3 ml of aqueous phosphate buffer solution optionally containing a stabiliser, in such a way that the resulting ethanol content was 8% and the radioactive concentration at calibration time was 74 MBq/cm^3 (2 mCi/ml).
The vials were stored at ambient temperature and the radiochemical purity (RCP) was determined by thin layer chromatography (TLC) at the time of dilution with phosphate buffer and at 24 and 48 hours afterwards.

[2] = Discolouration / heat sterilisation stability of stabiliser stock solutions
Source text: A preferred biocompatible carrier medium for the stabiliser stock solution comprises an aqueous solution at a pH suitable for intravenous administration. A preferred such aqueous solution is a buffer solution, most preferably phosphate buffer. When the radiopharmaceutical is ^123I-IBZM, the pH of the buffered stock solution is suitably pH 5 to 8, preferably 5.4 to 7, most preferably 5.7 to 6.3. As noted above, gentisic acid solutions tend to suffer from discoloration problems. […] The stock solutions may be prepared under non-sterile conditions, followed by terminal sterilisation using e.g. gamma-irradiation, autoclaving, dry heat or chemical treatment (e.g. with ethylene oxide). Alternatively, the stock solutions may be prepared under aseptic manufacture conditions to give the desired sterile, pyrogen-free product. Preferably the sterile stock solutions are prepared by terminal sterilisation, most preferably by autoclaving. Such autoclaving involves steam heating at over 121° C., so represents stress conditions wherein unwanted chemical reactions might be expected. […] It is therefore surprising that the lack of discolouration for gentisic acid can be maintained under such conditions.

[3] = Radiochemical purity of 123I-IBZM solutions made with autoclaved stabiliser stock solutions (Example 3); conditions: stock solution sterilised in an autoclave at 121 °C
Protocol: Stock solutions of the stabilisers shown were prepared, purged with argon gas and then sealed under argon in a septum-sealed vial with a Teflon™ coated rubber stopper.
The solutions were sterilised by autoclaving for 15 minutes at 121° C., and then allowed to cool to ambient temperature before use.
A small series of ^123I-IBZM solutions was prepared: to each vial ^123I-IBZM in EtOH (925 MBq/cm^3) was added and subsequently an aqueous phosphate buffer solution containing a stabiliser as specified in Table 3 (below), in such a way that the resulting ethanol content was 8% and the radioactive concentration at calibration time was 74 MBq/cm^3 (2 mCi/ml). The RCP of each vial was determined 3 hours after preparation and after storage at room temperature for 51 hours.

[4] = Radiochemical purity of 123I-IBZM vs gentisic acid concentration in stock solution (Example 4, FIG. 1); conditions: 0 to 0.39% w/v gentisic acid, pH 5.8, 74 MBq/ml, room temperature
Protocol: A phosphate buffer solution (300 ml) was divided into 6 vials each of 50 ml with various amounts of gentisic acid, corresponding to w/v concentrations of 0%, 0.024%, 0.050%, 0.10%, 0.20% and 0.39%. The pH was checked, and if necessary adjusted by the addition of NaOH to obtain a pH of 5.8 (±0.1). The vials were stoppered with Teflon™ coated rubber stoppers and sterilised for 15 min at 121° C.
An ethanolic solution of ^123I-IBZM (activity concentration at REF: 925 MBq/ml (25 mCi/ml)) was divided over 6 vials and into each was added an aliquot of the 6 gentisic acid buffer solutions from step (a) to obtain a final solution with a total activity content of 185 MBq (5 mCi), at a RAC of 74 MBq/ml (2 mCi/ml) and an ethanol content of 8%. The vials were stoppered with a Teflon™ coated rubber stopper and stored at room temperature. The RCP was measured at various time points after EOS.

[5] = Radiochemical purity of 123I-mIBG in phosphate buffer with stabilisers (Example 5); conditions: compared with benzyl alcohol
Protocol: Two series of 5 vials of ^123I-mIBG solutions were prepared: to each vial an aliquot of 0.5 cm^3 of freshly prepared ^123I-mIBG in (stabiliser-free) Phosphate buffer (360 MBq/cm^3) was added and subsequently an aliquot of 2.0 cm^3 of an aqueous phosphate buffer solution containing a stabiliser as specified in Table 4 (below), followed by mixing. The final mixtures were not heat sterilized. The total activity per vial was 185 MBq with an RAC of 74 MBq/ml. The specific activity was 992 GBq/g mIBG base. Vials A1 to E1 were stored at 40° C. and vials A2 to E2 at 20° C. The RCP was determined at the EOS (end of synthesis) and at 3, 20 and 45 hours thereafter.

Question: Which “principal radiochemical impurity (free 123I-iodide) in the 123I-IBZM preparation” value [1] does the source give for `O=C1O[C@H]([C@@H](O)CO)C(O)=C1O` [ascorbic acid, reference compound] here?
Answer: 4 to 5%

Question: What about the “stability to heat sterilisation (autoclaving, over 121 °C) in buffer solution” value ([2]; buffer solution) of the same molecule?
Answer: does not withstand such heat sterilisation in buffer solution

Question: For `O=C(O)c1cc(O)ccc1O` [gentisic acid, 2,5-dihydroxybenzoic acid], which “principal radiochemical impurity (free 123I-iodide) in the 123I-IBZM preparation” value [1] is on record?
Answer: 2 to 3%

Question: What about the “stabilisation of 123I-IBZM (in words)” value [3] of the same molecule?
Answer: still an effective stabiliser

Question: What about the “stabilisation of 123I-IBZM vs stabiliser concentration (in words)” value [4] of the same molecule?
Answer: little or no additional stabilisation benefit is obtained

Question: And the “stabilisation of 123I-MIBG (in words)” value [5]?
Answer: effective at much lower concentrations than benzyl alcohol

Question: And the “discolouration of sterile solutions in aqueous buffer on storage” value ([2]; oxygen gas in the environment minimised)?
Answer: do not discolour even on storage for more than a year

Question: And the “discolouration of solutions on autoclave sterilisation” value ([2]; oxygen not excluded, autoclave)?
Answer: visible discolouration does occur
